Values of other authors in US20240033213A1, “TOPICAL PHARMACEUTICAL FORMULATION AND METHOD FOR THE TREATMENT OF SYNDROMES ASSOCIATED WITH CHRONIC PELVIC PAIN” (CURALEAF INTERNATIONAL LIMITED, priority 2020, published 2024).

Target: T1, TRPV1 receptor (Rattus norvegicus, UniProt O35433)
T1 construct: CBD Effects on TRPV1 Signaling Pathways in Cultured DRG Neurons; host or cells: cultured DRG sensory neurons (endogenous TRPV1)
Conditions: sensory neurons in an animal model, in vitro

T1 sequence (O35433 whole entry): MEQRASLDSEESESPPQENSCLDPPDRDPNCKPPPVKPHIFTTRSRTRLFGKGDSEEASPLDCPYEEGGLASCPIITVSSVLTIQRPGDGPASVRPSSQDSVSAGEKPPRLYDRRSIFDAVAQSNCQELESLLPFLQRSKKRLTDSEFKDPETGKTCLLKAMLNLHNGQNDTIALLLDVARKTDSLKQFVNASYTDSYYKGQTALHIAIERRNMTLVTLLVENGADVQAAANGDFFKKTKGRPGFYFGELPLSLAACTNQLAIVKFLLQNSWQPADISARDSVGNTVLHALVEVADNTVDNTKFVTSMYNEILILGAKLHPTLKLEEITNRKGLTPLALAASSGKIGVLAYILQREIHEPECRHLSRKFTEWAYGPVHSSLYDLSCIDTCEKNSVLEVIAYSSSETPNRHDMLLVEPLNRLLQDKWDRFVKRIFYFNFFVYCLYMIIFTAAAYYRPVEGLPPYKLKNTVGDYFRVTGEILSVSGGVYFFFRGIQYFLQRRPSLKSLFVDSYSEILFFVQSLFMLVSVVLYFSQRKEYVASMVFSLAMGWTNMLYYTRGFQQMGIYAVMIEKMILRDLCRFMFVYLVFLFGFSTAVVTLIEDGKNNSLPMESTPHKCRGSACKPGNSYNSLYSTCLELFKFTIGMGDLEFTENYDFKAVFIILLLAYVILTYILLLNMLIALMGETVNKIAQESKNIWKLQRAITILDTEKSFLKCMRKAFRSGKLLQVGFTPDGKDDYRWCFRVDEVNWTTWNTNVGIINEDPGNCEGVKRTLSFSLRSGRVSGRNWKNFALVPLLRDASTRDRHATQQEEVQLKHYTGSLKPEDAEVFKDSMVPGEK

## C=C(C)[C@@H]1CCC(C)=C[C@H]1c1c(O)cc(CCCCC)cc1O [cannabidiol]
  Effect on neuronal hypersensitivity following TRPV1 activation: inhibit neuronal hypersensitivity following TRPV1 activation
